Test results taken from patent publication US6384077B1, “Highly purified EPA for treatment of schizophrenia and related disorders” (Laxdale Limited, priority 1999, dated 2002).

Columns and labels:
Type in all cases: in vivo, human
depression = experiment: case report: depressed person, Hamilton Depression Rating Scale; details: 1 g/day 96% ethyl-EPA, after about 3-4 weeks
Excerpt: Our attention was unexpectedly drawn to the importance of highly purified EPA by our experience with a patient, a depressed women aged 35 years. […] […] […] They continued the EPA-rich oil for a further two months without any further change. […] As a result of this, and of thinking about the evidence relating to the binding of EPA to FACL-4 and presumably to other proteins, we came to the conclusion that it was important for clinical efficacy to administer EPA in a highly purified form for maximum clinical effectiveness.

[1] = test system: patients who had schizophrenia; experiment: randomised, placebo-controlled study of ethyl-EPA in clozapine-treated patients with schizophrenia (PANSS, MADRS); details: 1 g or 2 g per day versus placebo, 12 weeks
Excerpt: Although the case reports of the effects of ethyl-EPA are convincing and in some cases dramatic, unequivocal proof of its efficacy must come from randomised, placebo-controlled trials. We therefore set up a randomised, placebo-controlled study of EPA in 34 patients who had schizophrenia according to the criteria set out in the American Psychiatric Association's Diagnostic and Statistical Manual of Mental Disorders (4th edition, DSM-IV). All of these patients were being treated with clozapine drugs but all remained seriously ill, with schizophrenic symptoms. Like many schizophrenics, some of the patients were also depressed. All were assessed at baseline and after 12 weeks using the Positive and Negative Symptom Scale for Schizophrenia (PANSS) and the Montgomery-Asberg Depression Rating Scale (MADRS). After giving informed consent, all the patients were randomised on a double blind basis to one of three groups: placebo, or 1 g or 2 g of ethyl-EPA per day in the form of 0.5 g capsules. Placebo and EPA capsules were indistinguishable from one another in appearance. All the patients improved to some degree so all the changes are percentage improvements

dementia = experiment: case report: person with dementia; details: 4x0.5 g capsules per day, within four weeks
Excerpt: Dementia: A person developed dementia, probably of Alzheimer type but possibly with multi-infarct contributions because of associated cardiovascular disease. As often occurs they also became withdrawn and depressed but, unfortunately, this state was interrupted by irrational and violent outbursts, usually directed at members of their family, but also sometimes against complete strangers. They were tried on two cholinergic drugs: although these produced a small improvement in their cognitive state they did nothing for their depression, irritability and anger. They were tried on a dose of 4×0.5 g capsules of pure ethyl-EPA, two given in the morning and two in the evening. […] Their family also thought their cognition had improved but this is difficult to be certain of because of their improved mood.

schizophrenia = experiment: case history: schizophrenia, ethyl-EPA added to haloperidol; details: 4 g/day in addition to haloperidol, eight weeks
Excerpt: A person had become ill with schizophrenia. They had florid hallucinations and paranoia, but also withdrew themself from most of their friendships and lived alone. […] They lived alone, ceased to communicate with most of their friends, and went around to town alone and muttering to […]. Their psychiatrist heard about ethyl-EPA and decided to try it in addition to the standard drug. After eight weeks on treatment with 4 g/day their outlook was transformed. […] They were even persuaded to go on holiday with their family where they enjoyed themself and made new friends. The EPA therefore reversed the extreme withdrawal which appeared to have been exaggerated by haloperidol.

## CC/C=C\C/C=C\C/C=C\C/C=C\C/C=C\CCCC(=O)OCC [ethyl-EPA]
depression
  Hamilton scores: below 6
[1]
  side effects: no reported side effects attributable to the E-EPA
dementia
  mood and irritability in dementia: remarkable improvement
schizophrenia
  residual hallucinations: residual hallucinations disappeared
